Laboratory results reported in US8450527B2, “Amine derivative compounds for treating ophthalmic diseases and disorders” (Acucela Inc., priority 2007, dated 2013).
Where a name gives a salt, the structure may show the parent alone.

Tested on: not given
Experiment: not given
Details: not given

| melting point | Structure (SMILES) |
| --- | --- |
| 106 to 108 °C | Cc1cccc(C)c1CCc1cccc(CCCN)c1 (as salt: hydrochloride) [Example 1, 3-(3-(2,6-dimethylphenethyl)phenyl)propan-1-amine] |

Molecular target: T1, visual cycle isomerase (Bos taurus, UniProt Q28175)
T1 construct: Bovine Retinal Pigment Epithelium (RPE) microsome membranes were the source of a visual cycle isomerase; from tissue; host or cells: bovine retinal pigment epithelium microsome membranes; CRALBP made in E. coli
T1 sequence (Q28175 2-533 limits assumed): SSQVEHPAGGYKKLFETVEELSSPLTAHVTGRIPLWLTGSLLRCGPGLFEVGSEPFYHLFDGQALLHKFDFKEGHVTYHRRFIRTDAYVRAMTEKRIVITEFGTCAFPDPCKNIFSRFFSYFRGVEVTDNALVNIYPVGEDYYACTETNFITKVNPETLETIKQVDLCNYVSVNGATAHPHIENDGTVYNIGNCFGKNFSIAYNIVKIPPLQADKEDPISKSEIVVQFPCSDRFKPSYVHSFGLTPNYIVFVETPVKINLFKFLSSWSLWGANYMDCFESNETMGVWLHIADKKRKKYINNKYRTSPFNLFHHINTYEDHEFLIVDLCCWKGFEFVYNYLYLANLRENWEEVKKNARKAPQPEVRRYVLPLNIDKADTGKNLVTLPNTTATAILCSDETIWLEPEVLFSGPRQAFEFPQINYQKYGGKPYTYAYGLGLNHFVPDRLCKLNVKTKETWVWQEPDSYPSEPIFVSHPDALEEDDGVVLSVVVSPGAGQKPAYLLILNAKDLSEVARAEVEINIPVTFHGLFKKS
Experiment: In vitro isomerase inhibition assay, bovine RPE microsome membranes
Format: biochemical
Details: inhibition of 11-cis retinol formation; values given as ranges
Protocol: The capability of amine derivative compounds to inhibit the activity of a visual cycle isomerase was determined
Isomerase inhibition reactions were performed essentially as described (Stecher et al., J. Biol. Chem. 274:8577-85 (1999); see also Golczak et al., Proc. Natl. Acad. Sci. USA 102:8162-67 (2005)). Bovine Retinal Pigment Epithelium (RPE) microsome membranes were the source of a visual cycle isomerase.
Bovine RPE microsome membrane extracts were prepared according to methods described (Golczak et al., Proc. Natl. Acad. Sci. USA 102:8162-67 (2005)) and stored at −80° C. Crude RPE microsome extracts were thawed in a 37° C. water bath, and then immediately placed on ice. 50 ml crude RPE microsomes were placed into a 50 ml Teflon-glass homogenizer (Fisher Scientific, catalog no. 0841416M) on ice, powered by a hand-held DeWalt drill, and homogenized ten times upand down on ice under maximum speed. This process was repeated until the crude RPE microsome solution was homogenized. The homogenate was then subjected to centrifugation (50.2 Ti rotor (Beckman, Fullerton, Calif.), 13,000 RPM; 15360 Rcf) for 15 minutes at 4° C. The supernatant was collected and subjected to centrifugation at 42,000 RPM (160,000 Rcf; 50.2 Ti rotor) for 1 hour at 4° C. The supernatant was removed, and the pellets were suspended in 12 ml (final volume) cold 10 mM MOPS buffer, pH 7.0. The resuspended RPE membranes in 5 ml aliquots were homogenized in a glass-to-glass homogenizer (Fisher Scientific, catalog no.K885500-0021) to high homogeneity. Protein concentration was quantified using the BCA protein assay according to the manufacturer's protocol (Pierce, Rockford, Ill.). The homogenized RPE preparations were stored at −80° C.
Recombinant human apo cellular retinaldehyde-binding protein (CRALBP) was cloned and expressed according to standard methods in the molecular biology art (see Crabb et al., Protein Science 7:746-57 (1998); Crabb et al., J. Biol. Chem. 263:18688-92 (1988)). Briefly, total RNA was prepared from confluent ARPE^19 cells (American Type Culture Collection, Manassas, Va.), cDNA was synthesized using an oligo(dT)12-18 primer, and then DNA encoding CRALBP was amplified by two sequential polymerase chain reactions (see Crabb et al., J. Biol. Chem. 263:18688-92 (1988); Intres, et al., J. Biol. Chem. 269:25411-18 (1994); GenBank Accession No. L34219.1). The PCR product was sub-cloned into pTrcHis2-TOPO TA vector according to the manufacturer's protocol (Invitrogen Inc., Carlsbad, Calif.; catalog no. K4400-01), and then the sequence was confirmed according to standard nucleotide sequencing techniques. Recombinant 6×His-tagged human CRALBP was expressed in One Shot TOP 10 chemically competent E. coli cells (Invitrogen), and the recombinant polypeptide was isolated from E. coli cell lysates by nickel affinity chromatography using nickel (Ni) Sepharose XK16-20 columns for HPLC (Amersham Bioscience, Pittsburgh, Pa.; catalog no.17-5268-O2). The purified 6×His-tagged human CRALBP was dialyzed against 10 mM bis-tris-Propane (BTP) and analyzed by SDS-PAGE. The molecular weight of the recombinant human CRALBP was approximately 39 kDal.
Amine derivative compounds and control compounds were reconstituted in ethanol to 0.1 M. Ten-fold serial dilutions (10^−2, 10^−3, 10^−4, 10^−5, 10^−6 M) in ethanol of each compound were prepared for analysis in the isomerase assay.
The isomerase assay was performed in 10 mM bis-tris-propane (BTP) buffer, pH 7.5, 0.5% BSA (diluted in BTP buffer), 1 mM sodium pyrophosphate, 20 μM all-trans retinol (in ethanol), and 6 μM apo-CRALBP. The test compounds (2 μl) (final 1/15 dilution of serial dilution stocks) were added to the above reaction mixture to which RPE microsomes were added. The same volume of ethanol was added to the control reaction (absence of test compound). Bovine RPE microsomes (9 μl) (see above) were then added, and the mixtures transferred to 37° C. to initiate the reaction (total volume=150 μl). […]

| IC50 | Structure (SMILES) |
| --- | --- |
| ≤ 1 µM | CCC(O)(CC)CCc1cccc(CCCN)c1 [Example 2, 1-(3-(3-aminopropyl)phenyl)-3-ethylpentan-3-ol] |
| 1 to 10 µM | CC(C)(O)CCc1cccc(CCCN)c1 [Example 4, 4-(3-(3-Aminopropyl)phenyl)-2-methylbutan-2-ol] |
| 1 to 10 µM | COCCCc1cccc(CCCN)c1 [Example 5, 3-(3-(3-Methoxypropyl)phenyl)propan-1-amine] |
| 10 to 100 µM | NCCCc1cccc(CCCO)c1 [Example 6, 3-(3-(3-aminopropyl)phenyl)propan-1-ol] |
| 1 to 10 µM | CCCC(O)CCc1cccc(CCCN)c1 (stereo not drawn) [Example 8, 1-(3-(3-aminopropyl)phenyl)hexan-3-ol] |
| ≤ 1 µM | NCCOc1cccc(CCCCCCO)c1 [Example 13, 6-(3-(2-aminoethoxy)phenyl)hexan-1-ol] |
| ≤ 1 µM | NCCOc1cccc(CCCC2CCCC2)c1 [Example 14, 2-(3-(3-cyclopentylpropyl)phenoxy)ethanamine] |
| ≤ 1 µM | NCCC(O)c1cccc(CCCc2ccccc2)c1 (stereo not drawn) [Example 18, 3-amino-1-(3-(3-phenylpropyl)phenyl)propan-1-ol] |
| 10 to 100 µM | NCCCc1cccc(CCc2ccc3ccccc3c2)c1 [Example 21, 3-(3-(2-(naphthalen-2-yl)ethyl)phenyl)propan-1-amine] |
| 1 to 10 µM | NCCCc1cccc(CCc2ccccc2)c1 [Example 22, 3-(3-phenethylphenyl)propan-1-amine] |
| 10 to 100 µM | NCCCc1cccc(CCCCO)c1 [Example 23, 4-(3-(3-aminopropyl)phenyl)butan-1-ol] |
| ≤ 1 µM | NCCCc1cccc(CCC2CCCC2)c1 [Example 24, 3-(3-(2-cyclopentylethyl)phenyl)propan-1-amine] |
| ≤ 1 µM | NCCCc1cccc(CCC2CCCCC2)c1 [Example 25, 3-(3-(2-cyclohexylethyl)phenyl)propan-1-amine] |
| ≤ 1 µM | NCCCc1cccc(CCCc2ccccc2)c1 [Example 26, 3-(3-(3-phenylpropyl)phenyl)propan-1-amine] |
| ≤ 1 µM | CCCCCCc1cccc(CCCN)c1 [Example 28, 3-(3-hexylphenyl)propan-1-amine] |
| ≤ 1 µM | NCCCc1cccc(CCCCCCO)c1 [Example 30, 6-(3-(3-aminopropyl)phenyl)hexan-1-ol] |
| 1 to 10 µM | Cc1ccccc1CCc1cccc(CCCN)c1 [Example 31, 3-(3-(2-methylphenethyl)phenyl)propan-1-amine] |
| 10 to 100 µM | NCCCc1cccc(CCc2cccc(-c3ccccc3)c2)c1 [Example 32, 3-(3-(2-(Biphenyl-3-yl)ethyl)phenyl)propan-1-amine] |
| ≤ 1 µM | COCCCCCCc1cccc(CCCN)c1 [Example 33, 3-(3-(6-methoxyhexyl)phenyl)propan-1-amine] |
| 1 to 10 µM | CCCCC(CCCC)c1cccc(CCCN)c1 [Example 34] |
| 1 to 10 µM | NCCOc1cccc(CCc2cccnc2)c1 [Example 36, 2-(3-(2-(pyridin-3-yl)ethyl)phenoxy)ethanamine] |
| 1 to 10 µM | NCCOc1cccc(CCc2ccccn2)c1 [Example 37, 2-(3-(2-(pyridin-2-yl)ethyl)phenoxy)ethanamine] |
| ≤ 1 µM | NCCOc1cccc(CCc2cccs2)c1 [Example 38, 2-(3-(2-(thiophen-2-yl)ethyl)phenoxy)ethanamine] |
| 100 to 1000 µM | Cc1cccc(C)c1NC(=O)c1cccc(CCCN)c1 [Example 166, 3-(3-aminopropyl)-N-(2,6-dimethylphenyl)benzamide] |

Tested on: retinoid nuclear receptors (RAR and RxR)
Experiment: Retinoid nuclear receptor activity
Details: not given

| effects on retinoid nuclear receptors (RAR and RxR) | Structure (SMILES) |
| --- | --- |
| activated | C/C(=C\c1ccc(C(=O)O)cc1)c1ccc2c(c1)C(C)(C)CCC2(C)C [TTNPB, E-4-[2-(5,6,7,8-tetrahydro-5,5,8,8-tetramethyl-2-naphthylenyl)-1-propenyl]benzoic acid, reference compound] |
| activated | CC1=C(/C=C/C(C)=C/C=C/C(C)=C/C(=O)O)C(C)(C)CCC1 [at-RA, All-trans-retinoic acid, reference compound] |
